Tested on: CD4+ T cells
Test: IFN-γ ELISPOT of CD4+ T cells presensitized with overlapping NY-ESO-1 18 mer peptides
Assay type: cell-based, human
Conditions: for Patient T cells 1 / Patient T cells 2 / Patient T cells 3: IFN-γ ELISPOT; for Patient T cells 1: day 12, CD4+ T cells of patient 1, autologous peptide pulsed EBV-B cells as targets; for Patient T cells 2: day 12, CD4+ T cells of patient 2, autologous peptide pulsed EBV-B cells as targets; for Patient T cells 3: day 12, CD4+ T cells of patient 3, autologous peptide pulsed EBV-B cells as targets; for patients whose CD4+ T cells recognized the peptide: three patients tested
Procedure: Peripheral blood mono-nuclear cells (“PBMCs”) were separated from heparinized blood via Ficoll density gradient separation, using standard, art recognized techniques. Once this was done, the CD4^+ and CD8^+ T cells were separated from each other using magnetic cell sorting techniques which are well known to the art, producing CD4^+, CD8^+, and CD4^−/CD8^− cell populations.
A series of 18 mer peptides were prepared from the amino acid sequence of NY-ESO-1 as set forth in, e.g., U.S. Pat. No. 5,804,381, incorporated by reference. The peptides were designed to cover the entire sequence of NY-ESO-1, and to provide overlap.
The peptides were then individually pulsed to antigen presenting cells (“APCs”). These were CD4^−/CD8^− PBMCs taken from the same subjects who had provided the CD4^+ and CD8^+ cells. These APCs were irradiated with 3000 rads, and then pulsed with one of the peptides, at a concentration of 10 μg/ml, for 1 hour, in serum free medium. These APCs were then washed, and added to the CD4^+ cells. In the pulsing experiments, the peptides were solubilized in DMSO (100%) and then diluted with PBS to a final concentration of 10% DMSO. The CD4^+ cells had been cultured in a medium of L-arginine (242 mg/l), L-asparagene (50 mg/l), L-glutamine (300 mg/l), penicillin (10 IU/ml), streptomycin (100 μg/ml), 1% non-essential amino acids, 10% HS, and 10 ng/ml of recombinant human IL-2.
The CD4^+ T cells were restimulated weekly with 1 μg/ml of the peptide being used. On day 12, each CD4^+ culture was assayed for NY-ESO-1 peptide recognition, using the ELISPOT assay of lager, et al., Proc. Natl. Acad. Sci. USA, 97(9):4760-4765 (2000), incorporated by reference. To elaborate on this procedure, flat-bottomed, 96-well nitrocellulose plates were coated with 5 μg/ml of anti-interferon-gamma antibody and incubated overnight at 4° C. After washing with PBS, plates were blocked with 10% human serum (HS) for 1 hour at 37° C. Depending on the effector:target ratio used, various numbers of presensitized CD4^+ T-cells were added to each well along with 5×10^4 autologous peptide pulsed EBV transfected B cells (“EBV-B cells”) serving as target cells and incubated for 16 hours at 37° C. in TCM without IL-2. Plates were then washed extensively (6 times with a solution of 0.05% Tween 20/PBS), and biotinylated anti-interferon-gamma detection antibody was added at a concentration of 0.5 μg/ml. After incubation for 2 h at 37° C., plates were washed and incubated with ABC-AP Vectastain for 1 hour. Plates were washed again and developed with substrate (BCIP/NPT) until blue spots were visible. The number of blue spots/well represented the proportion of NY-ESO-1 specific CD4^+ T-cells/well was finally counted under the microscope.
The EBV-B-cells were generated from each patients' PBMC following standard methods and maintained in RPMI 1640 medium supplemented with 10 mM Hepes buffer, L-arginine (242 mg/l), L-asparagine (50mg/l), L-glutamine (300 mg/l), penicillin (10 IU/ml), streptomycin (100 μg/ml), 1% non-essential amino acids, and 10% FCS. […] PBMC's or EBV-B-cells were molecularly typed for HLA expression using standard procedures.

Substance | Patient T cells 1 | Patient T cells 2 | Patient T cells 3 | patients whose CD4+ T cells recognized the peptide
P13-30: synthetic 18 mer peptide, amino acids 13-30 of NY-ESO-1 (GDADGPGGPGIPDGPGGN; UniProt P78358 13-30, looked up, fragment) [Peptide P13-30] | − (− indicates <50 spots) | − (− indicates <50 spots) | − (− indicates <50 spots) | –
P19-36: synthetic 18 mer peptide, amino acids 19-36 of NY-ESO-1 (GGPGIPDGPGGNAGGPGE; UniProt P78358 19-36, looked up, fragment) [Peptide P19-36] | − (− indicates <50 spots) | − (− indicates <50 spots) | − (− indicates <50 spots) | –
P25-42: synthetic 18 mer peptide, amino acids 25-42 of NY-ESO-1 (DGPGGNAGGPGEAGATGG; UniProt P78358 25-42, looked up, fragment) [Peptide P25-42] | − (− indicates <50 spots) | − (− indicates <50 spots) | − (− indicates <50 spots) | –
P31-48: synthetic 18 mer peptide, amino acids 31-48 of NY-ESO-1 (AGGPGEAGATGGRGPRGA; UniProt P78358 31-48, looked up, fragment) [Peptide P31-48] | − (− indicates <50 spots) | − (− indicates <50 spots) | − (− indicates <50 spots) | –
P37-54: synthetic 18 mer peptide, amino acids 37-54 of NY-ESO-1 (AGATGGRGPRGAGAARAS; UniProt P78358 37-54, looked up, fragment) [Peptide P37-54] | − (− indicates <50 spots) | − (− indicates <50 spots) | − (− indicates <50 spots) | –
P43-60: synthetic 18 mer peptide, amino acids 43-60 of NY-ESO-1 (RGPRGAGAARASGPGGGA; UniProt P78358 43-60, looked up, fragment) [Peptide P43-60] | − (− indicates <50 spots) | + (+ indicates >50 spots (all + scores indicated were >100 spots)) | − (− indicates <50 spots) | one patient
P67-84: synthetic 18 mer peptide, amino acids 67-84 of NY-ESO-1 (GAASGLNGCCRCGARGPE; UniProt P78358 67-84, looked up, fragment) [Peptide P67-84] | − (− indicates <50 spots) | − (− indicates <50 spots) | − (− indicates <50 spots) | –
P73-90: synthetic 18 mer peptide, amino acids 73-90 of NY-ESO-1 (NGCCRCGARGPESRLLEF; UniProt P78358 73-90, looked up, fragment) [Peptide P73-90] | − (− indicates <50 spots) | − (− indicates <50 spots) | − (− indicates <50 spots) | –
P79-96: synthetic 18 mer peptide, amino acids 79-96 of NY-ESO-1 (GARGPESRLLEFYLAMPF; UniProt P78358 79-96, looked up, fragment) [Peptide P79-96] | − (− indicates <50 spots) | − (− indicates <50 spots) | − (− indicates <50 spots) | –
p1-18: synthetic 18 mer peptide, amino acids 1-18 of NY-ESO-1 (MQAEGRGTGGSTGDADGP; UniProt P78358 1-18, looked up, fragment) | − (− indicates <50 spots) | − (− indicates <50 spots) | − (− indicates <50 spots) | –
p7-24: synthetic 18 mer peptide, amino acids 7-24 of NY-ESO-1 (GTGGSTGDADGPGGPGIP; UniProt P78358 7-24, looked up, fragment) | − (− indicates <50 spots) | − (− indicates <50 spots) | − (− indicates <50 spots) | –
p85-102: synthetic 18 mer peptide, amino acids 85-102 of NY-ESO-1 (SRLLEFYLAMPFATPMEA; UniProt P78358 85-102, looked up, fragment) | − (− indicates <50 spots) | − (− indicates <50 spots) | − (− indicates <50 spots) | –
p91-108: synthetic 18 mer peptide, amino acids 91-108 of NY-ESO-1 (YLAMPFATPMEAELARRS; UniProt P78358 91-108, looked up, fragment) | − (− indicates <50 spots) | − (− indicates <50 spots) | − (− indicates <50 spots) | –
p97-114: synthetic 18 mer peptide, amino acids 97-114 of NY-ESO-1 (ATPMEAELARRSLAQDAP; UniProt P78358 97-114, looked up, fragment) | − (− indicates <50 spots) | + (+ indicates >50 spots (all + scores indicated were >100 spots)) | − (− indicates <50 spots) | one patient
p103-120: synthetic 18 mer peptide, amino acids 103-120 of NY-ESO-1 (ELARRSLAQDAPPLPVPG; UniProt P78358 103-120, looked up, fragment) | − (− indicates <50 spots) | + (+ indicates >50 spots (all + scores indicated were >100 spots)) | − (− indicates <50 spots) | one patient
p109-126: synthetic 18 mer peptide, amino acids 109-126 of NY-ESO-1 (LAQDAPPLPVPGVLLKEF; UniProt P78358 109-126, looked up, fragment) | − (− indicates <50 spots) | − (− indicates <50 spots) | − (− indicates <50 spots) | –
p115-132: synthetic 18 mer peptide, amino acids 115-132 of NY-ESO-1 (PLPVPGVLLKEFTVSGNI; UniProt P78358 115-132, looked up, fragment) | − (− indicates <50 spots) | − (− indicates <50 spots) | − (− indicates <50 spots) | –
p127-144: synthetic 18 mer peptide, amino acids 127-144 of NY-ESO-1 (TVSGNILTIRLTAADHRQ; UniProt P78358 127-144, looked up, fragment) | − (− indicates <50 spots) | − (− indicates <50 spots) | − (− indicates <50 spots) | –
p133-150: synthetic 18 mer peptide, amino acids 133-150 of NY-ESO-1 (LTIRLTAADHRQLQLSIS; UniProt P78358 133-150, looked up, fragment) | − (− indicates <50 spots) | − (− indicates <50 spots) | − (− indicates <50 spots) | –
p139-156: synthetic 18 mer peptide, amino acids 139-156 of NY-ESO-1 (AADHRQLQLSISSCLQQL; UniProt P78358 139-156, looked up, fragment) | − (− indicates <50 spots) | − (− indicates <50 spots) | − (− indicates <50 spots) | –
p145-162: synthetic 18 mer peptide, amino acids 145-162 of NY-ESO-1 (LQLSISSCLQQLSLLMWI; UniProt P78358 145-162, looked up, fragment) | − (− indicates <50 spots) | − (− indicates <50 spots) | − (− indicates <50 spots) | –

Reference: patent publication US7632506B2, “Identification of new NY-ESO-1 epitopes recognized by CD4+ T-cells” (Ludwig Institute for Cancer Research, priority 2005, dated 2009)
